Assay results reported in patent US7217726B2, “Antibacterial agents” (Orchid Chemicals & Pharmaceuticals Limited, priority 2002, dated 2007).
Converted amounts (≈) assume the structure as drawn.

Key:
[1] = system: E. faecalis ATCC 51299; experiment: Agar Dilution Method MIC, E. faecalis ATCC 51299; format: cell-based; conditions: Enterococcus faecalis, ATCC51299, Mueller Hinton Agar, 35° Celsius, 20 hours, read-out: Minimum Inhibitory Concentration (MIC in μg/ml)
Protocol: (§1) Briefly, the compounds of invention were weighed, dissolved in Dimethyl Sulfoxide, serially diluted in the same solvent and then incorporated into molten Mueller Hinton Agar in a petridish before solidification, with each petridish containing a different concentration of a compound.
(§2) The Bacterial Inoculum was prepared by touching the tops of 3 to 5 well isolated bacterial colonies with the same morphological appearance from an 18 hour old culture with an inoculating loop, transfering the growth to a tube containing 5 ml of normal saline and adjusting the turbidity of the saline suspension to 0.5 Macfarland Turbidity Standard equivalent to a bacterial population of 1.5×10^8 colony forming units (CFU) per millilitre of suspension.
(§3) The bacterial inoculum prepared in the above manner was inoculated onto petri dishes containing Mueller Hinton Agar which had earlier been incorporated with different dilutions of the compounds of invention by a Multipoint Inoculator with each inoculum spot containing approximately 1×10^4 colony forming units (CFU) of bacteria.
(§4) The inoculated petridishes were incubated at 35° Celsius in an ambient atmosphere for 20 hours. Petridishes containing different concentrations of Vancomycin and Oxacillin and inoculated with Staphylococcus aureus, Coagulase Negative Staphylococci and Enterococci were incubated for 24 hours.

[2] = system: S. epidermidis MRO 02046; experiment: Agar Dilution Method MIC, S. epidermidis MRO 02046; format: cell-based; conditions: Staphylococcus epidermidis, MRO02046, Mueller Hinton Agar, 35° Celsius, 20 hours, read-out: Minimum Inhibitory Concentration (MIC in μg/ml)
Protocol: as §1, §2, §3, §4

[3] = system: S. aureus MRO 00048; experiment: Agar Dilution Method MIC, S. aureus MRO 00048; format: cell-based; conditions: Staphylococcus aureus, MRO00048, Mueller Hinton Agar, 35° Celsius, 20 hours, read-out: Minimum Inhibitory Concentration (MIC in μg/ml)
Protocol: as §1, §2, §3, §4

[4] = system: E. faecalis ATCC 29212; experiment: Agar Dilution Method MIC, E. faecalis ATCC 29212; format: cell-based; conditions: Enterococcus faecalis, ATCC29212, Mueller Hinton Agar, 35° Celsius, 20 hours, read-out: Minimum Inhibitory Concentration (MIC in μg/ml)
Protocol: as §1, §2, §3, §4

[5] = system: S. aureus ATCC 43300; experiment: Agar Dilution Method MIC, S. aureus ATCC 43300; format: cell-based; conditions: Staphylococcus aureus, ATCC43300, Mueller Hinton Agar, 35° Celsius, 20 hours, read-out: Minimum Inhibitory Concentration (MIC in μg/ml)
Protocol: as §1, §2, §3, §4

[6] = system: S. aureus MRO 00055; experiment: Agar Dilution Method MIC, S. aureus MRO 00055; format: cell-based; conditions: Staphylococcus aureus, MRO00055, Mueller Hinton Agar, 35° Celsius, 20 hours, read-out: Minimum Inhibitory Concentration (MIC in μg/ml)
Protocol: as §1, §2, §3, §4

[7] = system: S. aureus MRO 00013; experiment: Agar Dilution Method MIC, S. aureus MRO 00013; format: cell-based; conditions: Staphylococcus aureus, MRO00013, Mueller Hinton Agar, 35° Celsius, 20 hours, read-out: Minimum Inhibitory Concentration (MIC in μg/ml)
Protocol: as §1, §2, §3, §4

[8] = system: M. catarrhalis ATCC 43628; experiment: Agar Dilution Method MIC, M. catarrhalis ATCC 43628; format: cell-based, Morexella catarrhalis; conditions: Moraxella catarrhalis, ATCC43628, Mueller Hinton Agar, 35° Celsius, 20 hours, read-out: Minimum Inhibitory Concentration (MIC in μg/ml)
Protocol: as §1, §2, §3, §4

[9] = system: M. catarrhalis ATCC 43627; experiment: Agar Dilution Method MIC, M. catarrhalis ATCC 43627; format: cell-based, Morexella catarrhalis; conditions: Moraxella catarrhalis, ATCC43627, Mueller Hinton Agar, 35° Celsius, 20 hours, read-out: Minimum Inhibitory Concentration (MIC in μg/ml)
Protocol: as §1, §2, §3, §4

[10] = system: S. aureus MRO 00003; experiment: Agar Dilution Method MIC, S. aureus MRO 00003; format: cell-based; conditions: Staphylococcus aureus, MRO00003, Mueller Hinton Agar, 35° Celsius, 20 hours, read-out: Minimum Inhibitory Concentration (MIC in μg/ml)
Protocol: as §1, §2, §3, §4

[11] = system: S. aureus MRO 00001; experiment: Agar Dilution Method MIC, S. aureus MRO 00001; format: cell-based; conditions: Staphylococcus aureus, MRO00001, Mueller Hinton Agar, 35° Celsius, 20 hours, read-out: Minimum Inhibitory Concentration (MIC in μg/ml)
Protocol: as §1, §2, §3, §4

[12] = system: S. aureus MRO 00059; experiment: Agar Dilution Method MIC, S. aureus MRO 00059; format: cell-based; conditions: Staphylococcus aureus, MRO00059, Mueller Hinton Agar, 35° Celsius, 20 hours, read-out: Minimum Inhibitory Concentration (MIC in μg/ml)
Protocol: as §1, §2, §3, §4

[13] = system: S. aureus MRO 00030; experiment: Agar Dilution Method MIC, S. aureus MRO 00030; format: cell-based; conditions: Staphylococcus aureus, MRO00030, Mueller Hinton Agar, 35° Celsius, 20 hours, read-out: Minimum Inhibitory Concentration (MIC in μg/ml)
Protocol: as §1, §2, §3, §4

[14] = system: S. aureus ATCC 29213; experiment: Agar Dilution Method MIC, S. aureus ATCC 29213; format: cell-based; conditions: Staphylococcus aureus, ATCC29213, Mueller Hinton Agar, 35° Celsius, 20 hours, read-out: Minimum Inhibitory Concentration (MIC in μg/ml)
Protocol: as §1, §2, §3, §4

[15] = system: M. catarrhalis ATCC 43617; experiment: Agar Dilution Method MIC, M. catarrhalis ATCC 43617; format: cell-based, Morexella catarrhalis; conditions: Moraxella catarrhalis, ATCC43617, Mueller Hinton Agar, 35° Celsius, 20 hours, read-out: Minimum Inhibitory Concentration (MIC in μg/ml)
Protocol: as §1, §2, §3, §4

[16] = system: E. fecalis MRO 04045; experiment: Agar Dilution Method MIC, E. fecalis MRO 04045; format: cell-based; conditions: Enterococcus faecalis, MRO04045, Mueller Hinton Agar, 35° Celsius, 20 hours, read-out: Minimum Inhibitory Concentration (MIC in μg/ml)
Protocol: as §1, §2, §3, §4

Compound	MIC [1]	MIC [2]	MIC [3]	MIC [4]	MIC [5]	MIC [6]	MIC [7]	MIC [8]	MIC [9]	MIC [10]	MIC [11]	MIC [12]	MIC [13]	MIC [14]	MIC [15]	MIC [16]
CC(=S)NC[C@H]1CN(c2ccc(N3CCN(C(=S)c4ccc(Cl)s4)CC3)c(F)c2)C(=O)O1 [Example 8, (S)-N-[3-[3-Fluoro-4-[4-(5-chlorothiophen-2-ylthiocarbonyl)piperazin-1-yl]phenyl]-2-oxooxazolidin-5-ylmethyl]thioacetamide]	0.25 µg/mL (≈ 0.487 µM)	0.25 µg/mL (≈ 0.487 µM)	0.25 µg/mL (≈ 0.487 µM)	0.25 µg/mL (≈ 0.487 µM)	0.25 µg/mL (≈ 0.487 µM)	0.5 µg/mL (≈ 0.974 µM)	0.5 µg/mL (≈ 0.974 µM)	2 µg/mL (≈ 3.9 µM)	2 µg/mL (≈ 3.9 µM)	0.5 µg/mL (≈ 0.974 µM)	0.25 µg/mL (≈ 0.487 µM)	0.25 µg/mL (≈ 0.487 µM)	0.5 µg/mL (≈ 0.974 µM)	0.5 µg/mL (≈ 0.974 µM)	2 µg/mL (≈ 3.9 µM)	0.25 µg/mL (≈ 0.487 µM)
CC(=S)NC[C@H]1CN(c2ccc(N3CCN(C(=S)Cc4cccs4)CC3)c(F)c2)C(=O)O1 [Example 13, (S)-N-[3-[3-Fluoro-4-[4-(thiophen-2-ylthioacetyl)piperazin-1-yl]phenyl]-2-oxooxazolidin-5-ylmethyl]thioacetamide]	0.5 µg/mL (≈ 1.01 µM)	0.25 µg/mL (≈ 0.507 µM)	0.25 µg/mL (≈ 0.507 µM)	0.5 µg/mL (≈ 1.01 µM)	0.5 µg/mL (≈ 1.01 µM)	1 µg/mL (≈ 2.03 µM)	1 µg/mL (≈ 2.03 µM)	2 µg/mL (≈ 4.06 µM)	2 µg/mL (≈ 4.06 µM)	1 µg/mL (≈ 2.03 µM)	0.25 µg/mL (≈ 0.507 µM)	0.5 µg/mL (≈ 1.01 µM)	0.5 µg/mL (≈ 1.01 µM)	0.25 µg/mL (≈ 0.507 µM)	2 µg/mL (≈ 4.06 µM)	1 µg/mL (≈ 2.03 µM)
CC(=S)NC[C@H]1CN(c2ccc(N3CCN(C(=S)c4cnccn4)CC3)c(F)c2)C(=O)O1 [Example 14, (S)-N-[3-[3-Fluoro-4-[4-(pyrazin-2-ylthiocarbonyl)piperazin-1-yl]phenyl]-2-oxooxazolidin-5-ylmethyl]thioacetamide]	0.25 µg/mL (≈ 0.527 µM)	0.25 µg/mL (≈ 0.527 µM)	0.25 µg/mL (≈ 0.527 µM)	0.25 µg/mL (≈ 0.527 µM)	0.25 µg/mL (≈ 0.527 µM)	0.5 µg/mL (≈ 1.05 µM)	0.5 µg/mL (≈ 1.05 µM)	2 µg/mL (≈ 4.21 µM)	2 µg/mL (≈ 4.21 µM)	0.5 µg/mL (≈ 1.05 µM)	0.25 µg/mL (≈ 0.527 µM)	0.25 µg/mL (≈ 0.527 µM)	0.5 µg/mL (≈ 1.05 µM)	0.5 µg/mL (≈ 1.05 µM)	2 µg/mL (≈ 4.21 µM)	0.25 µg/mL (≈ 0.527 µM)
CC(=S)NC[C@H]1CN(c2ccc(N3CCN(C(=S)Nc4ccc([N+](=O)[O-])cc4)CC3)c(F)c2)C(=O)O1 [Example 45, (S)-N-[3-[3-Fluoro-4-(4-(4-nitrophenyl)thiocarbamidopiperazin-1-yl)phenyl]-2-oxooxazolidin-5-methyl]thioacetamide]	0.25 µg/mL (≈ 0.469 µM)	0.25 µg/mL (≈ 0.469 µM)	0.25 µg/mL (≈ 0.469 µM)	0.25 µg/mL (≈ 0.469 µM)	0.25 µg/mL (≈ 0.469 µM)	0.5 µg/mL (≈ 0.939 µM)	0.5 µg/mL (≈ 0.939 µM)			0.5 µg/mL (≈ 0.939 µM)	0.25 µg/mL (≈ 0.469 µM)	0.5 µg/mL (≈ 0.939 µM)	0.5 µg/mL (≈ 0.939 µM)	0.5 µg/mL (≈ 0.939 µM)		0.25 µg/mL (≈ 0.469 µM)
CC(=S)NC[C@H]1CN(c2ccc(N3CCN(C(=S)NC(=O)c4ccccc4)CC3)c(F)c2)C(=O)O1 [Example 47]	0.25 µg/mL (≈ 0.485 µM)	0.25 µg/mL (≈ 0.485 µM)	0.25 µg/mL (≈ 0.485 µM)	0.25 µg/mL (≈ 0.485 µM)	0.25 µg/mL (≈ 0.485 µM)	0.5 µg/mL (≈ 0.97 µM)	0.5 µg/mL (≈ 0.97 µM)			0.5 µg/mL (≈ 0.97 µM)	0.25 µg/mL (≈ 0.485 µM)	0.25 µg/mL (≈ 0.485 µM)	0.5 µg/mL (≈ 0.97 µM)	0.5 µg/mL (≈ 0.97 µM)		0.25 µg/mL (≈ 0.485 µM)
